In ChEMBL document CHEMBL1268984, “N-Substituted acetamidines and 2-methylimidazole derivatives as selective inhibitors of neuronal nitric oxide synthase” (Bioorg Med Chem Lett, 2010):

What was measured:
Nitric oxide synthase 3 = biological target: T1, Nitric oxide synthase 3 (Bos taurus, UniProt P29473); assay: Inhibition of bovine eNOS assessed as nitric oxide mediated oxidation of oxyhemoglobin to methemoglobin
T1 sequence (P29473 whole entry): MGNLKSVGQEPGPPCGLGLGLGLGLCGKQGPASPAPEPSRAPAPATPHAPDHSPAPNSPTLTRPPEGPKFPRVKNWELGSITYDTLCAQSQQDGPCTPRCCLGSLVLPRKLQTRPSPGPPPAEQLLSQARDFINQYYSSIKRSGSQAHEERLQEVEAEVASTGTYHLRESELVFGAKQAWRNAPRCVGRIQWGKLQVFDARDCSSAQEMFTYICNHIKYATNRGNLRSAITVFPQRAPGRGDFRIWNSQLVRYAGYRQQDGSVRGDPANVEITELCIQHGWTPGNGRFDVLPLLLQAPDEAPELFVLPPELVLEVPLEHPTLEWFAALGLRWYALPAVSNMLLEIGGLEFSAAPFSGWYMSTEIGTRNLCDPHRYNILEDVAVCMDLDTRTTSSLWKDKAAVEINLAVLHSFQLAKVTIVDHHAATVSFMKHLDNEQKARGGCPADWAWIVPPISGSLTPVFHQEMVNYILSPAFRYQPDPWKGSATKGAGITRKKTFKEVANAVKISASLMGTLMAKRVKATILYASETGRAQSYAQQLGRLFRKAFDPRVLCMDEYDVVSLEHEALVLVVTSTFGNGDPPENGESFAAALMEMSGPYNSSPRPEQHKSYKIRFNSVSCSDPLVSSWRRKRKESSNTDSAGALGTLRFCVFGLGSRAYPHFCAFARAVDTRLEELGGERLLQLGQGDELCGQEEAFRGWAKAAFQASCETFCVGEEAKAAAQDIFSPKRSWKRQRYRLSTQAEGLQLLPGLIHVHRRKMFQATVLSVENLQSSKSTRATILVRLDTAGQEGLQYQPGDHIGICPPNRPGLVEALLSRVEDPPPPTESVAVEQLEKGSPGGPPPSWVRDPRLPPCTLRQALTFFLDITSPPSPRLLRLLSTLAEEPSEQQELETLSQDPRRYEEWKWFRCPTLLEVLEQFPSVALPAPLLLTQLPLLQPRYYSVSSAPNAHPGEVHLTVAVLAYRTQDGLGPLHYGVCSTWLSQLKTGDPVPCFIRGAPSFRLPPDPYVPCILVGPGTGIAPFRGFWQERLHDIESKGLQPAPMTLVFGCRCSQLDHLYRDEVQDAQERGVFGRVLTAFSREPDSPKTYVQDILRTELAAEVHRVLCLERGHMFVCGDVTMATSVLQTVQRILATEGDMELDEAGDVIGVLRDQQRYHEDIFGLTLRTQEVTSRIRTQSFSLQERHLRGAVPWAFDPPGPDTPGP

[1] = Selectivity ratio, ratio of IC50 for mouse macrophage iNOS to IC50 for rat brain nNOS
Nitric oxide synthase 1 = Nitric oxide synthase 1 (Rattus norvegicus, UniProt P29476); assay: Inhibition of rat brain nNOS assessed as nitric oxide mediated oxidation of oxyhemoglobin to methemoglobin
Nitric oxide synthase 1, sequence (P29476 whole entry): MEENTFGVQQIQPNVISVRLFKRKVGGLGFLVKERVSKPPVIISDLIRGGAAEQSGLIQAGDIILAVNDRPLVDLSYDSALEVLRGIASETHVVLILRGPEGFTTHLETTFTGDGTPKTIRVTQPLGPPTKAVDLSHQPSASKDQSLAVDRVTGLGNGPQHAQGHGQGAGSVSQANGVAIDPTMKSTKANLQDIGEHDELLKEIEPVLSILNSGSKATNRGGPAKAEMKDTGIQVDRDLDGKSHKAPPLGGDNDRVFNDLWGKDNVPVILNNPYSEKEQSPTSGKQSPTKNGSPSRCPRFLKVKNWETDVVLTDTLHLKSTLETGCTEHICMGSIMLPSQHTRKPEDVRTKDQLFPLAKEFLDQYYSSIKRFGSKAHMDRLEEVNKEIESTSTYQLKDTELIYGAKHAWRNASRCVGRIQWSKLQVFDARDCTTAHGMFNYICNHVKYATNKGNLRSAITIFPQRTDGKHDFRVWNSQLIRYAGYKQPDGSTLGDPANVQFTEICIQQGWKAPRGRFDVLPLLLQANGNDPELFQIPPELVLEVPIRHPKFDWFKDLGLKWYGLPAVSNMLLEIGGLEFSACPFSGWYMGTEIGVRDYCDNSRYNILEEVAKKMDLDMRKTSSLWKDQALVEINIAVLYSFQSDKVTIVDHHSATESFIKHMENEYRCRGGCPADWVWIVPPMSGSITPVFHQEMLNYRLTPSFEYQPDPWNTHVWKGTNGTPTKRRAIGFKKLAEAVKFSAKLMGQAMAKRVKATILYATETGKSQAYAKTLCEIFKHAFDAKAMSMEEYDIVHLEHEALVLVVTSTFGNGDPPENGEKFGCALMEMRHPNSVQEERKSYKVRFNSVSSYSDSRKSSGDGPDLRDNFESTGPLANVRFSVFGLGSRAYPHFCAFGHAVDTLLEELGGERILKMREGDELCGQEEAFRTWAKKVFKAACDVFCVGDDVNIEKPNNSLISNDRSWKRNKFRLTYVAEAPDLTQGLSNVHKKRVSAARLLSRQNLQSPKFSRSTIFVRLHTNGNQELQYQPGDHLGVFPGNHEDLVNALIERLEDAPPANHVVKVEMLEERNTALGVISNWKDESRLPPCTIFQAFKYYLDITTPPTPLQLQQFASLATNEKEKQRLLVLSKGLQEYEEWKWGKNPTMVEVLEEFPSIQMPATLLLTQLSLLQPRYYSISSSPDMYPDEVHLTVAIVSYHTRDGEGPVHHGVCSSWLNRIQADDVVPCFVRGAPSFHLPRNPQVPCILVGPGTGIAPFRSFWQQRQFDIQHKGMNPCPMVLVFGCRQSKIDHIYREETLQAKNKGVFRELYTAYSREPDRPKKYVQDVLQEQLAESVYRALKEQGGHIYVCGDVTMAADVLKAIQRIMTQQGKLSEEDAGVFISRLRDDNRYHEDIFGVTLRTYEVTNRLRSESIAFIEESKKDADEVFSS

[2] = biological target: T2, Nitric oxide synthase, inducible (Mus musculus, UniProt P29477); assay: Inhibition of mouse macrophage iNOS assessed as nitric oxide mediated oxidation of oxyhemoglobin to methemoglobin
T2 sequence (P29477 whole entry): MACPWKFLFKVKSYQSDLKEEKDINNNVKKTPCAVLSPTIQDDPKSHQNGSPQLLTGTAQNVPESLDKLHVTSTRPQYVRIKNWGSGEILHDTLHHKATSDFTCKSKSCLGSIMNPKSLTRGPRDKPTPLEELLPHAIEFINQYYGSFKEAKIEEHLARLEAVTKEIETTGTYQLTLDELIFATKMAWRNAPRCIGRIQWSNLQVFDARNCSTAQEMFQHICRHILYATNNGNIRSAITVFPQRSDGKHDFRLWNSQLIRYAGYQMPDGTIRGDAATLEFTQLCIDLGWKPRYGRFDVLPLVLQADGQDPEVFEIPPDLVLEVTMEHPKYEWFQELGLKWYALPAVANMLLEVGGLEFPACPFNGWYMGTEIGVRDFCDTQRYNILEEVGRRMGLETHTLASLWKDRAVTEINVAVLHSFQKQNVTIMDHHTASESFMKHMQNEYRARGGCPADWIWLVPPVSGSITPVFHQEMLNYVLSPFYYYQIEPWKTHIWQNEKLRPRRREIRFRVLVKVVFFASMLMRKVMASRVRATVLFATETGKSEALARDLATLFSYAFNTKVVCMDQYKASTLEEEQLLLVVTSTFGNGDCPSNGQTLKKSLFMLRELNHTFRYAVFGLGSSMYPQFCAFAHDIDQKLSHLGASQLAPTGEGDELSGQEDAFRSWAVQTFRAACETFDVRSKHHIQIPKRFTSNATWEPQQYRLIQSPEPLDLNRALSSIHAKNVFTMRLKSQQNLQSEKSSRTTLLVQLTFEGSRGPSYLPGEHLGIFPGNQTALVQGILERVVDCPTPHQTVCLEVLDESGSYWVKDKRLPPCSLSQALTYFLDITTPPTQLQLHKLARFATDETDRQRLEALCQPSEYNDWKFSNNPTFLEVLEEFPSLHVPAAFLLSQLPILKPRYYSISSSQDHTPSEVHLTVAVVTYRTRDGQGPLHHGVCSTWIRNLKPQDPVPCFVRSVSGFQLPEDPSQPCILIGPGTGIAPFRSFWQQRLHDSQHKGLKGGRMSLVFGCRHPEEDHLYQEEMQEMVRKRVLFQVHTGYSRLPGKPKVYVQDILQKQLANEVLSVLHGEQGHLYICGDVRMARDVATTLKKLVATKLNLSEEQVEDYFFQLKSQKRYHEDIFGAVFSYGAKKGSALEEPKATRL

[3] = Selectivity ratio, ratio of IC50 for bovine eNOS to IC50 for rat brain nNOS

SMILES	IC50 (Nitric oxide synthase 3)	Ratio IC50 [1]	IC50 (Nitric oxide synthase 1)	IC50 [2]	Ratio IC50 [3]
CC(=N)NC(c1ccccc1)c1ccccc1	350 µM	100	0.3 µM	30 µM	1170
CC(=N)NCc1ccc2c(c1)OCO2	400 µM	2	400 µM	800 µM	1
CC(=N)N[C@@H](C)c1ccccc1	300 µM	0.003	150 µM	0.45 µM	2
Cc1nccn1Cc1ccncc1	100 µM	2.4	5 µM	12 µM	20
CC(=N)NCc1ccccc1	350 µM	0.013	150 µM	0.2 µM	2.3
COc1cccc(CNC(C)=N)c1	100 µM	5	10 µM	50 µM	10

The remaining molecules from weak to strong by IC50 (Nitric oxide synthase 3), led by results:

IC50 (Nitric oxide synthase 3)	Ratio IC50 [1]	IC50 (Nitric oxide synthase 1)	IC50 [2]	Ratio IC50 [3]	SMILES
100 µM	50	0.2 µM	10 µM	500	CC(=N)NC(c1ccccc1)C(C)C (racemic)
90 µM	10	5 µM	50 µM	18	Cc1nccn1Cc1ccccc1
80 µM	0.003	90 µM	0.25 µM	0.9	CCC(NC(C)=N)c1ccccc1 (racemic)
80 µM	20	5 µM	100 µM	16	Cc1nccn1C(C)c1ccccc1 (racemic) [EFETOZOLE]
